From ChEMBL document CHEMBL3632623, “Discovery of Imidazo[1,2-α][1,8]naphthyridine Derivatives as Potential HCV Entry Inhibitor” (ACS Med Chem Lett, 2015)
Calls of active or inactive are those of the source. No cut-off for these calls is given here.

Tests used:
Hepatitis C virus [1] = experiment: Antiviral activity against HCV genotype 2a JFH-1 infected in human Huh7.5.1 cells after 2 hrs by luciferase assay; type: functional, organism-based, Hepacivirus hominis; conditions: JFH-1, Huh-7, 2 h
[2] = Cytotoxicity against human Huh7.5.1 cells; type: cell-based, Huh-7
Hepatitis C virus [3] = experiment: Antiviral activity against HCV genotype 1b Con-1 infected in human HuH7 cells after 72 hrs by luciferase based replicon assay; type: functional, organism-based; conditions: Hepacivirus hominis; isolate Con1; Huh-7
Hepatitis C virus [4] = experiment: Ratio of RO8191 EC50 to compound EC50 for HCV genotype 2a JFH-1 infected in human Huh7.5.1 cells after 2 hrs by luciferase assay; type: functional, Hepacivirus hominis, Huh-7
[5] = Cytotoxicity against human HepAD38 cells; type: cell-based
[6] = Cmax in Wistar rat at 100 mg/kg, po; type: ADME, organism-based; design: dose 100 mg/kg, route oral; conditions: in vivo
Hepatitis C virus [7] = experiment: Antiviral activity against HCV genotype 2a JFH-1 in human Huh7.5.1 cells assessed as inhibition of viral attachment to heparan sulfate proteoglycans at 0.2 uM at 4 degC by luciferase assay; type: functional, organism-based; conditions: Hepacivirus hominis, Huh-7
HepG2 = experiment: Activation of ISRE reporter gene in human HepG2 cells at 2 to 50 uM after 24 hrs by luciferase assay; type: functional, cell-based
Huh-7 [8] = experiment: Activation of ISRE reporter gene in human Huh7.5.1 cells at 2 to 50 uM after 24 hrs by luciferase assay; type: functional, cell-based
[9] = tested on: Middle East respiratory syndrome-related coronavirus; experiment: Antiviral activity against MERS infected in human HuH7 cells; type: functional, cell-based; conditions: Huh-7
[10] = Cytotoxicity against human GHOST cells; type: cell-based
[11] = Cytotoxicity against human RD cells; type: cell-based
[12] = Elimination half life in Wistar rat at 100 mg/kg, po; type: ADME, organism-based; conditions: in vivo, read-out: beta t1/2 (converted)
Huh-7 [13] = experiment: Activation of ISRE reporter gene in human HuH7 cells at 2 to 50 uM after 24 hrs by luciferase assay; type: functional, cell-based
Hepatitis C virus [14] = experiment: Antiviral activity against HCV genotype 2a JFH-1 in human Huh7.5.1 cells assessed as reduction of viral entry up to 3 hrs by luciferase assay; type: functional, organism-based; conditions: Hepacivirus hominis, Huh-7
Hepatitis C virus [15] = experiment: Antiviral activity against HCV genotype 2a JFH-1 in human Huh7.5.1 cells assessed as inhibition of post-attachment infection phase at 0.2 uM after 3 days by luciferase assay; type: functional, Hepacivirus hominis; conditions: JFH-1, Huh-7, 72 h
Enterovirus A71 = experiment: Antiviral activity against EV71 infected in human RD cells; type: functional, organism-based; conditions: Enterovirus A
[16] = AUC ( 0 to infinity) in Wistar rat at 100 mg/kg, po; type: ADME, organism-based; design: dose 100 mg/kg, route oral, time infinity; conditions: in vivo
[17] = tested on: Human immunodeficiency virus; experiment: Antiviral activity against HIV infected in human Ghost cells; type: functional, organism-based; conditions: Human immunodeficiency virus 1, Ghost
[18] = Cytotoxicity against human HuH7 cells; type: cell-based, Huh-7
Hepatitis B virus = experiment: Antiviral activity against HBV infected in human HepAD38 cells; type: functional, organism-based
[19] = AUC ( 0 to 24 hrs) in Wistar rat at 100 mg/kg, po; type: ADME, organism-based; design: time < 24 hr, dose 100 mg/kg, route oral; conditions: in vivo
[20] = Tmax in Wistar rat at 100 mg/kg, po; type: ADME, organism-based; conditions: in vivo
Vero = experiment: Activation of ISRE reporter gene in African green monkey Vero cells at 4 to 100 uM after 24 hrs by luciferase assay; type: functional, cell-based; conditions: Chlorocebus sabaeus
Hepatitis C virus [21] = experiment: Antiviral activity against HCV genotype 2a JFH-1 in human Huh7.5.1 cells assessed as inhibition of viral attachment to heparan sulfate proteoglycans at 10 nM at 4 degC by luciferase assay; type: functional, organism-based; conditions: Hepacivirus hominis, Huh-7
Hepatitis C virus [22] = experiment: Antiviral activity against HCV; type: functional, organism-based, Hepacivirus hominis

Compound: COC(=O)CN1CCN(C(=O)c2cn3c(ccc4c(C(F)(F)F)cc(C(F)(F)F)nc43)n2)CC1
- EC50 (Hepatitis C virus [1]): 13.2 µM
- CC50 [2]: > 25 µM

Compound: CCOC(=O)[C@@H](CCCCN)NC(=O)c1cn2c(ccc3c(C(F)(F)F)cc(C(F)(F)F)nc32)n1
- EC50 (Hepatitis C virus [1]): 0.14 µM
- CC50 [2]: > 25 µM

Compound: CC1CN(C(=O)c2cn3c(ccc4c(C(F)(F)F)cc(C(F)(F)F)nc43)n2)CCN1 (centres undefined)
- EC50 (Hepatitis C virus [1]): 0.067 µM
- Activity (Hepatitis C virus [3]): inactive
- CC50 [2]: > 25 µM
- Ratio EC50 (Hepatitis C virus [4]): 5

Compound: O=C(c1cn2c(ccc3c(C(F)(F)F)cc(C(F)(F)F)nc32)n1)N1CCOCC1
- EC50 (Hepatitis C virus [1]): > 20 µM
- CC50 [2]: > 25 µM

Compound: COC(=O)C1CCN(C(=O)c2cn3c(ccc4c(C(F)(F)F)cc(C(F)(F)F)nc43)n2)CC1
- EC50 (Hepatitis C virus [1]): 12.7 µM
- CC50 [2]: > 25 µM

Compound: Nc1ccccc1NC(=O)c1cn2c(ccc3c(C(F)(F)F)cc(C(F)(F)F)nc32)n1
- EC50 (Hepatitis C virus [1]): > 20 µM
- CC50 [2]: > 25 µM

Compound: COC(=O)C1CCCN(C(=O)c2cn3c(ccc4c(C(F)(F)F)cc(C(F)(F)F)nc43)n2)C1 (centres undefined)
- EC50 (Hepatitis C virus [1]): 2.54 µM
- CC50 [2]: > 25 µM

Compound: O=C(c1cn2c(ccc3c(C(F)(F)F)cc(C(F)(F)F)nc32)n1)N1CCC(CO)CC1
- EC50 (Hepatitis C virus [1]): > 20 µM
- CC50 [2]: > 25 µM

Compound: NCCNC(=O)c1cn2c(ccc3c(C(F)(F)F)cc(C(F)(F)F)nc32)n1
- CC50 [5]: > 20 µM
- Cmax [6]: 2050 nM
- EC50 (Hepatitis C virus [1]): 0.017 µM
- Activity (Hepatitis C virus [3]): inactive
- inhibition (Hepatitis C virus [7]): Active
- Activity (HepG2): inactive
- Activity (Huh-7 [8]): inactive
- EC50 [9]: > 20 µM
- CC50 [10]: > 20 µM
- CC50 [11]: > 20 µM
- CC50 [2]: > 25 µM
- half-life [12]: 2.93 h
- Ratio EC50 (Hepatitis C virus [4]): 5
- Activity (Huh-7 [13]): inactive
- inhibition (Hepatitis C virus [14]): Active
- inhibition at 0.2 µM (Hepatitis C virus [15]): 90%
- EC50 (Enterovirus A71): > 20 µM
- AUC(0-inf) [16]: 19.1 µM·h
- EC50 [17]: > 20 µM
- CC50 [18]: > 20 µM
- EC50 (Hepatitis B virus): > 20 µM
- AUC(0-t) at 24 h [19]: 19 µM·h
- Tmax [20]: 2.17 h
- Activity (Vero): inactive

Compound: CN1CCN(C(=O)c2cn3c(ccc4c(C(F)(F)F)cc(C(F)(F)F)nc43)n2)CC1
- EC50 (Hepatitis C virus [1]): 0.159 µM
- Activity (Hepatitis C virus [3]): inactive
- CC50 [2]: > 25 µM

Compound: CO/C1=C\C(C)=C\[C@@H](C)[C@@H](O)[C@@H](C)C/C(C)=C/C=C/[C@H](OC)[C@@H]([C@@H](C)[C@@H](O)[C@H](C)[C@@]2(O)C[C@@H](O)[C@H](C)[C@@H](C(C)C)O2)OC1=O
- inhibition (Hepatitis C virus [14]): Active
- inhibition (Hepatitis C virus [21]): inactive

Compound: NCCCCNC(=O)c1cn2c(ccc3c(C(F)(F)F)cc(C(F)(F)F)nc32)n1
- EC50 (Hepatitis C virus [1]): 1.13 µM
- CC50 [2]: > 25 µM

Compound: NC1CCN(C(=O)c2cn3c(ccc4c(C(F)(F)F)cc(C(F)(F)F)nc43)n2)C1 (centres undefined)
- EC50 (Hepatitis C virus [1]): 0.021 µM
- Activity (Hepatitis C virus [3]): inactive
- CC50 [2]: > 25 µM
- Ratio EC50 (Hepatitis C virus [4]): 5

Compound: O=C(c1cn2c(ccc3c(C(F)(F)F)cc(C(F)(F)F)nc32)n1)N1CCCC1CO (centres undefined)
- EC50 (Hepatitis C virus [1]): 16.6 µM
- CC50 [2]: > 25 µM

Compound: FC(F)(F)c1cc(C(F)(F)F)c2ccc3nc(-c4nnco4)cn3c2n1
- Activity (Hepatitis C virus [3]): Active
- Activity (HepG2): Active
- Activity (Huh-7 [8]): Active
- EC50 (Hepatitis C virus [22]): 0.203 µM
- Activity (Huh-7 [13]): Active
- Activity (Vero): Active

Compound: Nc1ccc(NC(=O)c2cn3c(ccc4c(C(F)(F)F)cc(C(F)(F)F)nc43)n2)cc1
- EC50 (Hepatitis C virus [1]): > 20 µM
- CC50 [2]: > 25 µM

Compound: NCCCNC(=O)c1cn2c(ccc3c(C(F)(F)F)cc(C(F)(F)F)nc32)n1
- EC50 (Hepatitis C virus [1]): 1.3 µM
- CC50 [2]: > 25 µM

Compound: O=C(c1cn2c(ccc3c(C(F)(F)F)cc(C(F)(F)F)nc32)n1)N1CCNCC1
- EC50 (Hepatitis C virus [1]): 0.046 µM
- Activity (Hepatitis C virus [3]): inactive
- CC50 [2]: > 25 µM
- Ratio EC50 (Hepatitis C virus [4]): 5

Compound: O=C(c1cn2c(ccc3c(C(F)(F)F)cc(C(F)(F)F)nc32)n1)N1CCC(O)CC1
- EC50 (Hepatitis C virus [1]): > 20 µM
- CC50 [2]: > 25 µM

Compound: CN(C)CCNC(=O)c1cn2c(ccc3c(C(F)(F)F)cc(C(F)(F)F)nc32)n1
- EC50 (Hepatitis C virus [1]): 0.069 µM
- Activity (Hepatitis C virus [3]): inactive
- CC50 [2]: > 25 µM

Compound: NC1CCN(C(=O)c2cn3c(ccc4c(C(F)(F)F)cc(C(F)(F)F)nc43)n2)CC1
- EC50 (Hepatitis C virus [1]): 0.102 µM
- Activity (Hepatitis C virus [3]): inactive
- CC50 [2]: > 25 µM

Compound: NC1CCCCC1NC(=O)c1cn2c(ccc3c(C(F)(F)F)cc(C(F)(F)F)nc32)n1 (centres undefined)
- EC50 (Hepatitis C virus [1]): 0.048 µM
- Activity (Hepatitis C virus [3]): inactive
- CC50 [2]: > 25 µM
- Ratio EC50 (Hepatitis C virus [4]): 5

Compound: Nc1cccc(NC(=O)c2cn3c(ccc4c(C(F)(F)F)cc(C(F)(F)F)nc43)n2)c1
- EC50 (Hepatitis C virus [1]): > 20 µM
- CC50 [2]: > 25 µM

Compound: CNCCN(C)C(=O)c1cn2c(ccc3c(C(F)(F)F)cc(C(F)(F)F)nc32)n1
- EC50 (Hepatitis C virus [1]): 0.02 µM
- Activity (Hepatitis C virus [3]): inactive
- CC50 [2]: > 25 µM
- Ratio EC50 (Hepatitis C virus [4]): 5

Compound: O=C1CN(C(=O)c2cn3c(ccc4c(C(F)(F)F)cc(C(F)(F)F)nc43)n2)CCN1
- EC50 (Hepatitis C virus [1]): 12.5 µM
- CC50 [2]: > 25 µM
